Data: US10905120B2, “ABA receptor agonists that modulate transpiration” (The Regents of the University of California, priority 2016, dated 2021)
Values after ≈ are worked out from the molar mass of the structure shown. Read-outs that look alike come from different tables or passages of the source.

Assays:
PYR1 = molecular target: T1, PYR1 (Arabidopsis thaliana, UniProt O49686); test: PP2C inhibition assay, recombinant PYR1 receptor; format: biochemical
T1 sequence (O49686 1-191): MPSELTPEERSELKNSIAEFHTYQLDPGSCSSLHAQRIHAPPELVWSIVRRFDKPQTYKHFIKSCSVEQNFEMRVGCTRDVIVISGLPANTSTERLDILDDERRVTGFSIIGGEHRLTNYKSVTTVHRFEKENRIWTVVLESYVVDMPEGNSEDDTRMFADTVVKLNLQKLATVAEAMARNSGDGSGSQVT
T1 sequence (Q9CAJ0 23-511 partner): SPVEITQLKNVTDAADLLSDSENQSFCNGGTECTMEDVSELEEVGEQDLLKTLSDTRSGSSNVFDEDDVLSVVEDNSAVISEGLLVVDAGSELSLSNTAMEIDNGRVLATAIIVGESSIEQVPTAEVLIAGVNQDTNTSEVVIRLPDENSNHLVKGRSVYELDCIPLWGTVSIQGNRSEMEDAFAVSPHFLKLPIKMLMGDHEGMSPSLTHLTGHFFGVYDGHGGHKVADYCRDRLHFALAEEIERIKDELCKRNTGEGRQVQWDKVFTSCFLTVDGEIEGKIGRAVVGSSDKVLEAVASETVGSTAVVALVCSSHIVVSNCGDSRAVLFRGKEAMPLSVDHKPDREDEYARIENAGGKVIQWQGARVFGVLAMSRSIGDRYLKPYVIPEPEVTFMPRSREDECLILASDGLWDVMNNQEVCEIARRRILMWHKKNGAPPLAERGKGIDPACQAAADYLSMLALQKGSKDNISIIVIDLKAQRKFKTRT
Method: (§1) Reactions were started by adding 40 μL of a reaction solution containing 25 mM 4-nitrophenyl phosphate in assay buffer, after which absorbance measurements were immediately collected using a 405 nm on Wallac plate reader. Reactions contained 100 nM PP2C and 200 nM PYR/PYL proteins. […] The dose response data was fitted to a log (inhibitor) vs response-(variable slope) model using non-linear regression to infer the IC50 values using Graph Pad Prism 6.0.

PYL2 = molecular target: T2, PYL2 (Arabidopsis thaliana, UniProt O80992); test: PP2C inhibition assay, recombinant PYL2 receptor; format: biochemical
T2 sequence (O80992 1-190): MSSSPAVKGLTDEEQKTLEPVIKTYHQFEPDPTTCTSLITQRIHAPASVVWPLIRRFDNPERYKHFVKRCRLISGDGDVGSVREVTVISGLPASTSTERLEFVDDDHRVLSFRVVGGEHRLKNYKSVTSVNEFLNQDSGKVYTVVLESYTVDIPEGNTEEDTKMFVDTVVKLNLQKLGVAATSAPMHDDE
T2 sequence (Q9CAJ0 23-511 partner): T1 sequence (Q9CAJ0 23-511 partner)
Method: as §1

[1] = tested on: Arabidopsis thaliana seeds; test: Germination assay; format: in vivo; details: Minimal Inhibitory Concentration, 3 d in darkness after 4 d stratification
Method: Germination experiments were performed with Arabidopsis thaliana seeds of wildtype Col0, Ler, or mutant backgrounds.
Seeds were sterilized by 30 sec incubation in 70% ethanol solution followed by a 5 min […] (while vigorously shaking) in a bleach-Tween solution. Afterwards, the sterilizing solutions were removed, and five washes were performed with sterile distilled water. To enhance complete removal of the solutions between the different steps, short centrifuge spins were performed. Finally, the now surface-sterilized seeds were re-suspended in an aseptic 0.1% agar solution to simplify distribution over multiwall plates. One drop of the solution contained on average 20-30 seeds.
In the multiwell plates, seeds were plated onto 0.7% agar Murashige amd Skoog (MS) plant growth medium containing one-half MS salts and 0.5% sucrose containing different concentrations of ABA, quinabactin, or the compound of interest. After 4 d of stratification at 4° C., the plates were transferred to a growth chamber in darkness and allowed to germinate for 3 d before germination was evaluated. The results are shown above in Table 1 and FIGS. 3A and 3B.

[2] = recombinant receptor 200 nM, PP2C 100 nM, 4-nitrophenyl phosphate substrate, absorbance 405 nm, read-out: IC50 PYR1
[3] = recombinant receptor 200 nM, PP2C 100 nM, 4-nitrophenyl phosphate substrate, absorbance 405 nm, read-out: IC50 PYL2

| IC50 (PYR1; [2]) | IC50 (PYL2; [3]) | SMILES | MIC (μM) Germination [1] | IC50 (PYR1) | IC50 (PYL2) |
| --- | --- | --- | --- | --- | --- |
| – | – | CCCN1C(=O)CCc2cc(NS(=O)(=O)Cc3ccc(C)cc3)ccc21 [QB, Quinabactin, reference compound] | 3 µM (≈ 1.12 µg/mL) | – | – |
| > 50 µM | > 50 µM | CC(=O)Nc1ccc(NS(=O)(=O)Cc2ccc(C)cc2)cc1C(F)(F)F [Ligand Q10, N-[4-{[(4-Methylbenzyl)sulfonyl]amino}-2-(trifluoromethyl)phenyl]acetamide] | >25 µM | – | – |
| 0.21 ± 0.036 µM | 1.66 ± 0.046 µM | Cc1ccc(CS(=O)(=O)Nc2cc(C)c(C#N)c(C3CC3)c2)cc1 [Ligand Q28, N-(4-Cyano-3-cyclopropyl-5-methylphenyl)-1-(4-methylphenyl) methanesulfonamide] | 10 µM (≈ 3.4 µg/mL) | – | – |
| 0.098 ± 0.007 µM | 2.58 ± 0.222 µM | Cc1ccc(CS(=O)(=O)Nc2cc(C)c(C#N)c(C)c2)cc1 [Ligand Q15, N-(4-Cyano-3,5-dimethylphenyl)-1-(4-methylphenyl)methanesulfonamide] | 10 µM (≈ 3.14 µg/mL) | – | – |
| > 50 µM | > 50 µM | CCCN(C(C)=O)c1ccc(NS(=O)(=O)Cc2ccc(C)cc2)cc1C(F)(F)F [Ligand Q11, N-[4-{[(4-Methylbenzyl)sulfonyl]amino}-2-(trifluoromethyl)phenyl]-N-propylacetamide] | >25 µM | – | – |
| – | – | Cc1ccc(CS(=O)(=O)Nc2ccc(C#N)c(Cl)c2)cc1 [Ligand Q2, N-(3-Chloro-4-cyanophenyl)-1-(4-methylphenyl)methanesulfonamide] | 25 µM (≈ 8.02 µg/mL) | 3.91 ± 0.122 µM | > 50 µM |
| – | – | N#Cc1ccc(NS(=O)(=O)Cc2ccc(N)cc2)cc1C(F)(F)F [Ligand Q6, 1-(4-Aminophenyl)-N-[4-cyano-3-(trifluoromethyl)phenyl]methanesulfonamide] | >25 µM | 3.4 ± 0.2 µM | > 50 µM |
| 0.197 ± 0.009 µM | 5.63 ± 0.8 µM | Cc1cc(NS(=O)(=O)Cc2ccc(Cl)cc2)cc(C)c1C#N [Ligand Q22, 1-(4-Chlorophenyl)-N-(4-cyano-3,5-dimethylphenyl)methanesulfonamide] | 10 µM (≈ 3.35 µg/mL) | – | – |
| – | – | N#Cc1ccc(NS(=O)(=O)Cc2ccc(Br)cc2)cc1C(F)(F)F [Ligand Q7, 1-(4-Bromophenyl)-N-[4-cyano-3-(trifluoromethyl)phenyl]methanesulfonamide] | 10 µM (≈ 4.19 µg/mL) | 0.326 ± 0.0077 µM | 31.4 ± 3.4 µM |
| 0.246 ± 0.06 µM | 20 ± 1.08 µM | Cc1ccc(CS(=O)(=O)Nc2ccc(C#N)c(C)c2)cc1 [Ligand Q1, N-(4-Cyano-3-methylphenyl)-1-(4-methylphenyl)methanesulfonamide] | 10 µM (≈ 3 µg/mL) | – | – |
| 0.13 ± 0.009 µM | 11.8 ± 1.12 µM | COc1cc(NS(=O)(=O)Cc2ccc(C)cc2)ccc1C#N [Ligand Q20, N-(4-Cyano-3-methoxyphenyl)-1-(4-methylphenyl)methanesulfonamide] | 5 µM (≈ 1.58 µg/mL) | – | – |
| – | – | N#Cc1ccc(NS(=O)(=O)Cc2ccc([N+](=O)[O-])cc2)cc1C(F)(F)F [Ligand Q5, N-[4-Cyano-3-(trifluoromethyl)phenyl]-1-(4-nitrophenyl)methanesulfonamide] | >25 µM | 8.24 ± 0.52 µM | > 50 µM |
| – | – | Cc1ccc(CS(=O)(=O)Nc2ccc(C#N)c(C(F)(F)F)c2)cc1 [Ligand Q4, N-(4-Cyano-3-(trifluoromethyl)-phenyl)-1-(4-methylphenyl)methanesulfonamide] | 10 µM (≈ 3.54 µg/mL) | 0.258 ± 0.019 µM | 9.58 ± 0.102 µM |
| – | – | N#Cc1ccc(NS(=O)(=O)Cc2ccc(C(F)(F)F)cc2)cc1C(F)(F)F [Ligand Q9, N-[4-Cyano-3-(trifluoromethyl)phenyl]-1-[4-(trifluoromethyl)phenyl]methanesulfonamide] | 10 µM (≈ 4.08 µg/mL) | 3.4 ± 0.27 µM | > 50 µM |
| – | – | Cc1cc(NS(=O)(=O)Cc2ccc(Br)cc2F)cc(C)c1C#N [Ligand Q24, 1-(4-Bromo-2-fluorophenyl)-N-(4-cyano-3,5-dimethylphenyl)methanesulfonamide] | 10 µM (≈ 3.97 µg/mL) | 0.188 ± 0.019 µM | 11.9 ± 1.47 µM |
| 1.1 ± 0.183 µM | > 50 µM | Cc1cc(NS(=O)(=O)Cc2ccc(C(F)(F)F)cc2)ccc1C#N [Ligand Q13, N-(4-Cyano-3-methylphenyl)-1-[4-(trifluoromethyl)phenyl]methanesulfonamide] | >25 µM | – | – |
| 0.203 ± 0.025 µM | 20.1 ± 1.46 µM | Cc1cc(NS(=O)(=O)Cc2ccc(C3CC3)cc2)cc(C)c1C#N [Ligand Q23, N-(4-Cyano-3,5-dimethylphenyl)-1-(4-cyclopropylphenyl)methanesulfonamide] | 10 µM (≈ 3.4 µg/mL) | – | – |

| SMILES | IC50 (PYR1; [2]) | IC50 (PYL2; [3]) | MIC (μM) Germination [1] | IC50 (PYR1) | IC50 (PYL2) |
| --- | --- | --- | --- | --- | --- |
| Cc1ccc(CS(=O)(=O)Nc2ccc(C#N)c(Br)c2)cc1 [Ligand Q3, N-(3-Bromo-4-cyanophenyl)-1-(4-methylphenyl)methanesulfonamide] | 2.5 ± 0.151 µM | > 50 µM | >25 µM | – | – |
| Cc1ccc(CS(=O)(=O)Nc2cc(C(F)(F)F)c(C#N)cc2N)cc1 [Ligand Q18, N-[2-Amino-4-cyano-5-(trifluoromethyl)phenyl]-1-(4-methylphenyl) methanesulfonamide] | > 50 µM | > 50 µM | >25 µM | – | – |
| Cc1ccc(CS(=O)(=O)Nc2cc(C(F)(F)F)c(C#N)cc2[N+](=O)[O-])cc1 [Ligand Q17, N-[4-Cyano-2-nitro-5-(trifluoromethyl)phenyl]-1-(4-methylphenyl) methanesulfonamide] | > 50 µM | > 50 µM | >25 µM | – | – |
| Cc1ccc(CS(=O)(=O)Nc2cc(C(F)(F)F)c(C#N)c(C(F)(F)F)c2)cc1 [Ligand Q14, N-(4-Cyano-3,5-(bistrifluoromethyl)phenyl)-1-(4-methylphenyl) methanesulfonamide] | > 50 µM | > 50 µM | >25 µM | – | – |
| Cc1ccc(CS(=O)(=O)Nc2cc(C)c(C#N)c(Br)c2)cc1 [Ligand Q25, N-(3-Bromo-4-cyano-5-methylphenyl)-1-(4-methylphenyl)methanesulfonamide] | 0.355 ± 0.034 µM | 16.7 ± 0.788 µM | 25 µM (≈ 9.48 µg/mL) | – | – |
